Patent US12473250B2, “Molecular design of new antibiotics and antibiotic adjuvants against MCR strains” (priority 2019, dated 2025)
In brackets after ≈: the same amount, converted by molar mass.

Experiments:
Format in all cases: cell-based
[1] = tested on: colistin resistant MCR (+) E. Coli strains; experiment: MIC, broth microdilution, compound alone; conditions: compound alone
Method: (§1) MIC experiments of the antimicrobial agents were determined by a modified broth microdilution method in accordance with the Clinical and Laboratory Standards Institute (CLSI) guidelines using 96 well culture plates. In brief, serial dilutions of all plates were prepared at different concentrations (μg). The inoculum suspension was prepared by adding isolated colonies from a 18-20 hours on TSA plate into phosphate buffer (0.31 mM, pH 7.2) or in water for injection (BBraun) and adjusting the suspension to a turbidity equivalent to 0.5 McFarland Standard. Each well contained a final bacterial concentration of approximately 5×10^5 colony forming units (CFU)/mL. The plate was covered and incubated at 35° C. for 24 hours. […] For the microdilution plates, turbidity in wells can be measured at OD600 using TECAN infinite M200Pro. MIC was determined as […] concentration that gives a 99 percent inhibition.

[2] = tested on: colistin resistant MCR (−) E. Coli strains; experiment: MIC, broth microdilution, compound alone
Method: as §1

[3] = tested on: colistin resistant MCR (−) E. Cloacae strain 7023456439; experiment: MIC, broth microdilution, compound alone; conditions: strain 7023456439 E. Cloacae
Method: as §1

[4] = tested on: colistin resistant MCR (−) E. Coli strains; experiment: Synergy study: colistin MIC in the presence of compound
Method: (§2) The MICs of the individual drugs and LC compound in combinations were determined using the broth microdilution technique as recommended by the CLSI whereby the two anti-microbial agents were added in an equal amount. (e.g.: 50 μL of Colistin: 50 μL of LC compounds). Diluted media containing compounds and antibiotics will be serially diluted 2-fold, and LC compounds and antibiotics alone or in combination will be assayed at fixed synergy concentration. In all cases, the lowest concentration at which no visible growth occurred was be recorded to be the MIC value of individual and combined antibacterial agents. The results were obtained after 24 hours of incubation.

[5] = tested on: colistin resistant MCR (−) E. Cloacae strain 7023456439; experiment: as above; conditions: strain 7023456439 E. Cloacae
Method: as §2

[6] = tested on: colistin resistant MCR (+) E. Coli strains; experiment: as above
Method: as §2

[7] = strain 6083672926, MCR(−), compound at 5 μg (Table 2a: 5 ug/ml)
[8] = strain 7023446108, MCR(−), compound at 5 μg (Table 2a: 5 ug/ml)
[9] = strain 7033607097, MCR(−), compound at 5 μg (Table 2a: 5 ug/ml)
[10] = strain 6075066346, MCR(+), compound at 5 μg (Table 2a: 5 ug/ml)
[11] = strain 6083655967, MCR(+), compound at 5 μg (Table 2a: 5 ug/ml)
[12] = strain 7103531927, MCR(+), compound at 5 μg

Structure (SMILES) | MIC ([1]; strain 6075066346, MCR (+)) [mg/L] | MIC ([1]; strain 6083655967, MCR (+)) [mg/L] | MIC ([1]; strain 6103645107, MCR (+)) [mg/L] | MIC ([1]; strain 6123520276, MCR (+)) [mg/L] | MIC ([1]; strain 7013177695, MCR (+)) [mg/L] | MIC ([1]; strain 7023436560, MCR (+)) [mg/L] | MIC ([1]; strain 7023444207, MCR (+)) [mg/L] | MIC ([2]; strain 6083672926, MCR (−)) [mg/L] | MIC ([2]; strain 7023446108, MCR (−)) [mg/L] | MIC ([2]; strain 7033607097, MCR (−)) [mg/L] | MIC [3] [mg/L] | Colistin MIC in the presence of the compound [4, 7] [mg/L] | Colistin MIC in the presence of the compound [4, 8] [mg/L] | Colistin MIC in the presence of the compound [4, 9] [mg/L] | MIC ([1]; strain 7103531927, MCR (+)) [mg/L] | Colistin MIC in the presence of the compound [6, 10] [mg/L] | Colistin MIC in the presence of the compound [6, 11] [mg/L] | Colistin MIC in the presence of the compound [6, 12] [mg/L] | also measured
Cc1cc(OCCCCN(Cc2ccccn2)Cc2ccccn2)cc(OCCCCN(Cc2ccccn2)Cc2ccccn2)c1.[Cl][Zn][Cl].[Cl][Zn][Cl] [Orc-DPA-Zn] | 50 | 50 | >50 | 50 | 50 | 50 | 50 | 50 | 50 | 50 | >50 | – | – | – | – | – | – | – | Colistin MIC in the presence of the compound ([4]; strain 6083672926, MCR(−), compound at 50 ug/ml): <0.195 mg/L; Colistin MIC in the presence of the compound ([4]; strain 7023446108, MCR(−), compound at 50 ug/ml): <0.195 mg/L; Colistin MIC in the presence of the compound ([4]; strain 7033607097, MCR(−), compound at 50 ug/ml): <0.195 mg/L; Colistin MIC in the presence of the compound ([5]; compound at 50 ug/ml): <0.195 mg/L
COC(=O)C(CCCNC(=N)N)NC(=O)COc1ccc(C2COc3c(ccc4c3C=CC(C)(C)O4)C2)c(OCC(=O)NC(CCCNC(=N)N)C(=O)OC)c1 (stereo not drawn) [LC106] | >25 | >25 | >25 | >25 | >25 | >25 | >25 | >25 | >25 | >25 | >25 | – | – | – | – | – | – | – | Colistin MIC in the presence of the compound ([4]; strain 6083672926, MCR(−), compound at 10 μg (Table 2a: 10 ug/ml)): 12.5 mg/L; Colistin MIC in the presence of the compound ([4]; strain 7023446108, MCR(−), compound at 10 μg (Table 2a: 10 ug/ml)): 6.25 mg/L; Colistin MIC in the presence of the compound ([4]; strain 7033607097, MCR(−), compound at 10 μg (Table 2a: 10 ug/ml)): 6.25 mg/L; Colistin MIC in the presence of the compound ([5]; compound at 10 μg (Table 2a: 10 ug/ml)): >25 mg/L
CC(C)=CCc1c(OCCCCN(C)CCCN(C)C)ccc(C(=O)/C=C/c2ccc(OCCCCN(C)CCCN(C)C)cc2)c1O [LC098] | 6.25 (≈ 9.4 µM) | 6.25 (≈ 9.4 µM) | 6.25 (≈ 9.4 µM) | 6.25 (≈ 9.4 µM) | 6.25 (≈ 9.4 µM) | 6.25 (≈ 9.4 µM) | 6.25 (≈ 9.4 µM) | 12.5 (≈ 18.8 µM) | 6.25 (≈ 9.4 µM) | 6.25 (≈ 9.4 µM) | >25 | 0.195 | 0.195 | 0.195 | – | – | – | – | Colistin MIC in the presence of the compound ([5]; compound at 5 μg (Table 2a: 5 ug/ml)): 25 mg/L
CCOC(=O)C(CCCNC(=N)N)NC(=O)COc1ccc(/C=C/C(=O)c2ccc(OCC(=O)NC(CCCNC(=N)N)C(=O)OCC)c(CC=C(C)C)c2O)cc1 (stereo not drawn) [LC137] | 12.5 (≈ 15.5 µM) | 12.5 (≈ 15.5 µM) | – | – | – | – | – | 12.5 (≈ 15.5 µM) | 12.5 (≈ 15.5 µM) | 12.5 (≈ 15.5 µM) | – | ≤0.0975 | ≤0.0975 | ≤0.0975 | 12.5 (≈ 15.5 µM) | – | – | – | synergy with colistin ([6]; against mcr-1 bacteria, in words): excellent synergy; Colistin MIC in the presence of the compound ([6]; strain 6083655967, MCR(+), compound at 3 μg): 0.78 mg/L; Colistin MIC in the presence of the compound ([6]; strain 7103531927, MCR(+), compound at 3 μg): 0.39 mg/L; Colistin MIC in the presence of the compound ([4]; strain 6083672926, MCR(−), compound at 3 μg): 6.25 mg/L; Colistin MIC in the presence of the compound ([4]; strain 6083672926, MCR(−), compound at 4 μg): 0.195 mg/L; Colistin MIC in the presence of the compound ([4]; strain 7023446108, MCR(−), compound at 3 μg): 0.39 mg/L; Colistin MIC in the presence of the compound ([4]; strain 7023446108, MCR(−), compound at 4 μg): <0.0975 mg/L; Colistin MIC in the presence of the compound ([4]; strain 7033607097, MCR(−), compound at 3 μg): 0.195 mg/L; Colistin MIC in the presence of the compound ([4]; strain 7033607097, MCR(−), compound at 4 μg): <0.0975 mg/L
CCN(CC)CCCOc1ccc(/C=C/C(=O)c2ccc(OCCCN(CC)CC)c(CC=C(C)C)c2O)cc1 [LC204] | >50 | >50 | – | – | – | – | – | >50 | >50 | >50 | – | 0.39 | 0.39 | 0.39 | >50 | 0.39 | 0.39 | 0.39 | –
CC(C)=CCc1c(OCCCN2CCNCCNCCNCC2)ccc(C(=O)/C=C/c2ccc(OCCCN3CCNCCNCCNCC3)cc2)c1O [LC206] | >50 | >50 | – | – | – | – | – | >50 | >50 | >50 | – | 0.39 | 0.39 | 0.39 | >50 | 0.39 | 0.39 | 0.39 | –
CCN(CC)CCOc1ccc(/C=C/C(=O)c2ccc(OCCN(CC)CC)c(CC=C(C)C)c2O)cc1 [LC150] | >50 | >50 | – | – | – | – | – | 50 (≈ 95.7 µM) | 50 (≈ 95.7 µM) | 50 (≈ 95.7 µM) | – | 0.195 | 0.39 | 0.195 | >50 | 0.39 | 0.195 | 0.39 | –
CC(C)=CCc1c(OCCN(C)CCCN(C)C)ccc(C(=O)/C=C/c2ccc(OCCN(C)CCCN(C)C)cc2)c1O [LC140] | 12.5 (≈ 20.5 µM) | 12.5 (≈ 20.5 µM) | – | – | – | – | – | 12.5 (≈ 20.5 µM) | 12.5 (≈ 20.5 µM) | 6.25 (≈ 10.3 µM) | – | – | – | – | 25 (≈ 41.1 µM) | – | – | – | Colistin MIC in the presence of the compound ([4]; strain 6083672926, MCR(−), compound at 2 μg): 1.56 mg/L; Colistin MIC in the presence of the compound ([4]; strain 7023446108, MCR(−), compound at 2 μg): 1.56 mg/L; Colistin MIC in the presence of the compound ([4]; strain 7033607097, MCR(−), compound at 2 μg): 1.56 mg/L
